Experimental data published in the OligoGym collection.
Several values for one entry are separate records, joined by “and”; a condition that tells them apart may be missing. Equal values may be shown once. After the bases stand the sugars from the 5' end (letter, count) and the backbone: PS all phosphorothioate, else s phosphorothioate and o phosphodiester by linkage. Methylation of C is not given here. e = 2'-O-(2-methoxyethyl) (MOE); d = 2'-deoxy (DNA)

Target: DGAT2
Conditions: ASO

Sequence	target mRNA inhibition (HepG2, 2.5 µM)	target mRNA inhibition (HepG2, 10 µM)	target mRNA inhibition (HepG2, 0.12 µM)	target mRNA inhibition (HepG2, 20 µM)
ATCAGCTATAGAATCAGACA (sugars e5 d10 e5, PS)	16%	75%	–	–
ATCCAAAGATATAGTTCCTG (sugars e5 d10 e5, PS)	–	–	39%	–
ATCCAATGCACCTTGTATTA (sugars e5 d10 e5, PS)	57%	93%	–	–
ATCCATGTCAGAGAGGCTCA (sugars e5 d10 e5, PS)	66%	88%	–	–
ATCCTGCCAGAGTTATCCTC (sugars e5 d10 e5, PS)	86%	77%	–	–
ATGCCCTTGCTGTAGGACCC (sugars e5 d10 e5, PS)	79% and 73%	90%	–	–
ATGGAGCTCAGAGACTCAGC (sugars e3 d14 e3, PS)	–	–	71%	–
ATGGAGCTCAGAGACTCAGC (sugars e5 d10 e5, PS)	–	–	78%	–
ATGGGAAAGTAGTCTCGAAA (sugars e5 d10 e5, PS)	–	–	0%	–
ATTTCTTTTAAATAACCCAC (sugars e5 d10 e5, PS)	–	–	1%	–
CAAGAGGTAAGGCCAAGGAA (sugars e5 d10 e5, PS)	75%	90%	–	–
CACAGCGATGAGCCAGC (sugars e3 d10 e4, PS)	50% and 31%	–	–	–
CACAGTTAAAGTGTGGTACA (sugars e5 d10 e5, PS)	52%	88%	–	–
CACCAGCTGGATGGGAAAGT (sugars e5 d10 e5, PS)	–	–	31%	–
CACCTGTTACTACATGTCTA (sugars e5 d10 e5, PS)	68%	93%	–	–
CACTCTGTGATGCTCTGGAG (sugars e5 d10 e5, PS)	60%	84%	–	–
CAGAAGAGCAAAGGCTTGCT (sugars e5 d10 e5, PS)	50%	94%	–	–
CAGAAGGCACCCAGGCCCAT (sugars e5 d10 e5, PS)	–	–	33%	–
CAGCAGGTTGTGTGTCTTCA (sugars e3 d14 e3, PS)	–	–	47%	–
CAGCCTGGACAAGTCCTGCC (sugars e3 d14 e3, PS)	–	–	72%	–
CAGCCTGGACAAGTCCTGCC (sugars e5 d10 e5, PS)	–	81% and 90% and 88%	84%	86%
CAGGACCCCGGAGTAGGCGG (sugars e2 d13 e5, PS)	–	–	76%	–
CAGGACCCCGGAGTAGGCGG (sugars e3 d14 e3, PS)	–	–	53%	–

Sequence	target mRNA inhibition (HepG2, 2.5 µM)	target mRNA inhibition (HepG2, 10 µM)	target mRNA inhibition (HepG2, 0.12 µM)	target mRNA inhibition (HepG2, 20 µM)
CAGGACTTGGTACCTGATTC (sugars e5 d10 e5, PS)	–	–	35%	–
CAGGCATGGAGCTCAGAGAC (sugars e2 d13 e5, PS)	–	–	70%	–
CAGGCATGGAGCTCAGAGAC (sugars e3 d14 e3, PS)	–	–	76%	–
CAGGCCACTCCCAGTACAAG (sugars e5 d10 e5, PS)	–	–	1%	–
CAGGGCCTCCATGTACATGG (sugars e5 d10 e5, PS)	–	–	37%	–
CAGGGTCTGCCACTCTCTAC (sugars e5 d10 e5, PS)	56%	85%	–	–
CAGGTCTATGCTGCAGTCAT (sugars e5 d10 e5, PS)	53% and 45%	89% and 82%	–	–
CATAGGCCAGGAGGAAGAGT (sugars e5 d10 e5, PS)	–	–	35%	–
CATCACATGCTTATCCTTGA (sugars e5 d10 e5, PS)	–	–	41%	–
CATCAGGTACTCCCTCAACA (sugars e5 d10 e5, PS)	–	–	35%	–
CATGGAGCTCAGAGACTCAG (sugars e2 d13 e5, PS)	–	–	71%	–
CATGGAGCTCAGAGACTCAG (sugars e5 d10 e5, PS)	–	–	65%	–
CATTGCCACTCCCATTCTTT (sugars e5 d10 e5, PS)	–	–	44%	–
CATTGCTCAGATCACTCTGC (sugars e5 d10 e5, PS)	88%	74%	–	–
CCAACAGTGGTGATGGGCTT (sugars e5 d10 e5, PS)	–	–	60%	–
CCAACTCCTCCCCTTGGCAG (sugars e5 d10 e5, PS)	–	–	28%	–
CCAAGTAAGCCTCGGTGTCC (sugars e5 d10 e5, PS)	–	–	32%	–
CCACAGCGATAATCACA (sugars e3 d10 e4, PS)	63% and 60%	84% and 75%	–	–
CCACTCCCATTCTTTGAAAG (sugars e5 d10 e5, PS)	–	–	34%	–
CCACTGGAGCACTGAGATGA (sugars e2 d13 e5, PS)	–	–	54%	–
CCACTGTTGCTGAGCTCATG (sugars e5 d10 e5, PS)	68%	88%	–	–
CCCACTGGAGCACTGAGATG (sugars e5 d10 e5, PS)	–	–	78%	–
CCCATCATGACCAGGCCCTG (sugars e5 d10 e5, PS)	31%	77%	–	–

Sequence	target mRNA inhibition (HepG2, 2.5 µM)	target mRNA inhibition (HepG2, 10 µM)	target mRNA inhibition (HepG2, 0.12 µM)	target mRNA inhibition (HepG2, 20 µM)
CCCGGAGTAGGCGGCTATGA (sugars e5 d10 e5, PS)	60%	89%	–	–
CCTAAAGGTGAAGACTGGCT (sugars e5 d10 e5, PS)	77% and 79%	93% and 94%	–	–
CCTCATCTCAGTGCCCAAAG (sugars e5 d10 e5, PS)	25%	63%	–	–
CCTCGAAGATCACCTGCTTG (sugars e5 d10 e5, PS)	–	–	53%	–
CCTCGATGTTACATTAAGGG (sugars e5 d10 e5, PS)	82% and 88%	86% and 90%	–	–
CCTGGACAAGTCCTGCCCAT (sugars e3 d14 e3, PS)	–	–	70%	–
CCTTCCAGGGAATAAAATAC (sugars e5 d10 e5, PS)	–	–	3%	–
CCTTTGAAATCCAATGCACC (sugars e5 d10 e5, PS)	62%	92%	–	–
CGCGATTCACTGAGGACCTC (sugars e5 d10 e5, PS)	73% and 74%	83% and 93%	–	–
CTAAGCTTATTAGGTGTCTT (sugars e5 d10 e5, PS)	68%	81%	–	–
CTCACCCCTGTACTCAGCCC (sugars e5 d10 e5, PS)	72%	88%	–	–
CTCAGAGACTCAGCCGCACC (sugars e3 d14 e3, PS)	–	–	70%	–
CTCAGTCACTGACTCACAAC (sugars e5 d10 e5, PS)	54%	88%	–	–
CTCCCACCTGAGTGCTGCAA (sugars e5 d10 e5, PS)	74%	90%	–	–
CTCTGCTTCTTGGGCATCTG (sugars e5 d10 e5, PS)	78% and 70%	90% and 85%	–	–
CTGACCTCAGGGTGATCAAG (sugars e5 d10 e5, PS)	–	–	31%	–
CTGCTTCTTGGGCATCTGCT (sugars e5 d10 e5, PS)	76% and 73%	88% and 80%	–	–
CTGGACCCATCGGCCCCAGG (sugars e5 d10 e5, PS)	–	–	41%	–
CTTAAGGCAAAGTAACATAC (sugars e5 d10 e5, PS)	48% and 57%	75% and 96%	–	–
CTTAGGCATGCTTCCTCCCA (sugars e5 d10 e5, PS)	57%	84%	–	–
CTTCTTAAAAAAGACCTAAC (sugars e5 d10 e5, PS)	–	–	26%	–
CTTTGGATAGTCGATTTACC (sugars e5 d10 e5, PS)	59%	88%	–	–
CTTTTAAATAACCCACAGAC (sugars e5 d10 e5, PS)	–	–	0%	–

Sequence	target mRNA inhibition (HepG2, 2.5 µM)	target mRNA inhibition (HepG2, 10 µM)	target mRNA inhibition (HepG2, 0.12 µM)	target mRNA inhibition (HepG2, 20 µM)
GAAAGTAGTCTCGAAAGTAG (sugars e5 d10 e5, PS)	–	–	0%	–
GAATGCACTGAGTTTCTGCT (sugars e5 d10 e5, PS)	73% and 63%	92% and 87%	–	–
GACAATGAGTAAGGGTATTC (sugars e5 d10 e5, PS)	48%	83%	–	–
GACAGGACCCACTGGAGCAC (sugars e5 d10 e5, PS)	–	–	44% and 69%	–
GACCTTGGGCAAGTTACCTA (sugars e5 d10 e5, PS)	50% and 71%	89% and 94%	–	–
GAGATGACCTGTAGCTGCTT (sugars e5 d10 e5, PS)	–	–	34%	–
GAGCTCAGAGACTCAGCCGC (sugars e5 d10 e5, PS)	–	–	81%	–
GAGCTTCACCAGGGCCTCCA (sugars e5 d10 e5, PS)	–	74% and 79%	52%	83% and 88%
GAGGCCAAGGACAGAGGTTC (sugars e5 d10 e5, PS)	66%	81%	–	–
GATAGCATTGCCACTCCCAT (sugars e3 d14 e3, PS)	–	–	75%	–
GATAGCATTGCCACTCCCAT (sugars e5 d10 e5, PS)	–	–	66%	–
GATCTCAGTCACTGACTCAC (sugars e5 d10 e5, PS)	57%	91%	–	–
GATGCTGGATCCAGTGCCTA (sugars e5 d10 e5, PS)	–	–	53%	–
GATGGCAACCTAAGGAGTGA (sugars e5 d10 e5, PS)	–	–	37%	–
GCAATGCCAATGCCTAGGTC (sugars e5 d10 e5, PS)	87% and 89%	82% and 91%	–	–
GCACCTGTTACTACATGTCT (sugars e5 d10 e5, PS)	87% and 78%	92% and 84%	–	–
GCACTCTCTCTGCACACTCC (sugars e5 d10 e5, PS)	61%	87%	–	–
GCACTTGATCTGGGACCCAA (sugars e5 d10 e5, PS)	69% and 73%	95% and 92%	–	–
GCAGATCTTCATTACATGAT (sugars e5 d10 e5, PS)	–	86% and 91%	–	–
GCAGGACCCCGGAGTAGGCG (sugars e2 d13 e5, PS)	–	–	68%	–
GCAGGACCCCGGAGTAGGCG (sugars e5 d10 e5, PS)	–	–	58%	–
GCAGGGTTACCCAGCCACTG (sugars e5 d10 e5, PS)	85% and 67%	75% and 88%	–	–
